From article PMC8998618, “A Pharmacokinetic and Metabolism Study of the TRPC6 Inhibitor SH045 in Mice by LC-MS/MS” (International Journal of Molecular Sciences, 2022)

Test: time-dependent metabolization (stability) in MLM and IVIVE of hepatic clearance
Format: in vitro ADME, mouse
Text: In the widely used concept of the “well-stirred” model, liver represents a single uniform compartment. It is further assumed that the concentration of unbound SH045 leaving the liver is in equilibrium with its unbound concentration in hepatocytes (detailed calculation in Supplementary Materials SM8, summarized values in SR4). Briefly, microsomal intrinsic clearance was converted to hepatic clearance: CLhep = Q × fu × CLint/Q + (fu × CLint), where fu is the unbound fraction of SH045 in blood and Q is the hepatic blood flow in mice.
For this purpose, remaining concentrations of SH045 in microsomes were determined to calculate the intrinsic microsomal clearance CLint,micr, the intrinsic clearance CLint, equal to the maximum enzyme activity of liver and for in vitro-in vivo exploration of hepatic clearance CLhep in mouse and human using the well-stirred model. The algorithm for these calculations is given in detail in the Supplementary Materials SM8. […]
All microsome incubations were stopped with 1 mL ice -cold ACN containing 5 µg/mL IS, vortexed for 1 min and cooled at -20 °C for 10 min. […]
SM6 Metabolization studies in MLM and HLM and calculation of hepatic clearance For determination of vmax and Km of the NADPH-dependent microsomal depletion of SH045, the following incubations were performed for MLM and HLM, respectively. 2 µL SH045 (final concentration 0.5 – 100 µM, in triplicate), 12.5 µL HLM or MLM (finally 0.5 mg/mL protein) and 460.5 µL DPBS were vortexed and preincubated 37 °C for 5 min. The reaction was initiated by addition of 25 µL analogously pre-incubated β-NADPH (finally: 1 mM).
After gentle shaking at 37 °C and 300 rpm for 10 min, incubations were terminated and samples prepared as described […]
Testosterone (10 µM in ACN/DPBS 2/3, v/v) instead of SH045 was used as positive control and analyzed by an appropriate HPLC method with UV detection.
Negative controls contained either no NADPH, no MLM or HLM or none of them. […]
Menten constant Km were calculated using Lineweaver-Burk transformation. From Km an appropriate drug concentration of 2 µM was derived as prerequisite for experimental in vitro determination of t1/2 required for further exploration of clearance.
For this purpose, microsomes were incubated as described above with 2 µM SH045 for indicated time intervals up to 30 min. The remaining concentrations of SH045 were determined to calculate the intrinsic microsomal clearance CLint,micr the intrinsic clearance CLint, equal to the maximum enzyme activity of liver and for in vitro-in vivo exploration of hepatic clearance CLhep in mouse and human using the “well-stirred” model [6].
SM7 Identification of metabolism pathways and metabolites of SH045 in MLM and HLM To determine possible metabolism pathways of SH045 in MLM and HLM, an in vitro inhibition approach was performed with CYP-isoform specific inhibitors (final concentration): ciprofloxacin (CYP1A2; 150 µM), pilocarpine (CYP2A6; 50 µM), ticlopidine (CYP2B6; 5 µM), quercetin (CYP2C8; 2 µM), sulfaphenazole (CYP2C9; 10 µM), fluvoxamine (CYP2C19; 10 µM), quinidine (CYP2D6; 10 µM), 4-methyl pyrazole (CYP2E1; 100 µM) and ketoconazole (CYP3A4; 1 µM) [7, 8]. The inhibitors were dissolved in DPBS and appropriate methanol, the organic solvents not […]
SH045 (2 µM) was pre-incubated with MLM or HLM (0.5 mg/mL) and the specific inhibitor for 5 min at 37 °C in DPBS.
Ticlopidine, a time-dependent inhibitor was pre-incubated for 15 min [9]. Incubations were performed in triplicate with NADPH (1 mM) in a final volume of 500 µL for 2 min and 10 min with pre-incubated MLM and HLM, respectively, terminated with 1 mL ice-cold ACN and processed as described above for LC-MS/MS. A sample without any inhibitor served as a positive control. Incubations with an equal volume of DMSO instead of SH045 and samples without NADPH, MLM or HLM or both, respectively, served as negative controls.
To explore metabolites of SH045 formed by microsomes, D PBS, alamethicin (25 µg/mL) [10] and MLM or HLM (1.0 […]

C=C[C@@](C)(O)CC[C@H]1C(=C)C[C@H](OC(=O)NC)[C@H]2C(C)(C)CCC[C@]12C [SH045, (1S,4S,4aR,8aS)-4-((S)-3-Hydroxy-3-methylpent-4-en-1-yl)-4a,8,8-trimethyl-3-methylenedecahydronaphthalen-1-yl methylcarbamate]
microsomal CLint at 2 µM (CD-1, mouse, liver microsomes, mouse liver microsomes, read-out: CLint, micr): 1170 µL/min/mg | CLint scaled at 2 µM (CD-1, mouse, liver microsomes, mouse, scaled from CLint,micr): 4590 mL/min/kg | half-life at 2 µM (male, CD-1, pH 7.4, mouse liver microsomes 0.5 mg/mL, 2 µM SH045, NADPH): 1.18 min | CLint, micr (mouse liver microsomes): 1173.6 µL/min/mg | CLhep (mouse, predicted by well-stirred model, fu 0.3%, Q 90 mL/min/kg): 11.95 mL/min/kg | CLint (mouse, scaled from CLint,micr): 4594.6 mL/min/kg
